The values that follow come from BindingDB's records for PubMed 35189320 (Dr.Vishwanath Karad MIT World Peace University, 2022).

The experiment concerns the target Sterol O-acyltransferase 1 (Homo sapiens) (UniProt P35610). The experiment is described as follows: Inhibition of human ACAT1 in HepG2 cells assessed as inhibition of […] synthesis incubated for 1 hrs followed by 13C-addition of 13C-oleic acid pre-complexed with fatty acid free BSA for 6 hrs by LC/MS/MS analysis.

Chain of Sterol O-acyltransferase 1 (Homo sapiens) (P35610 whole entry, looked up): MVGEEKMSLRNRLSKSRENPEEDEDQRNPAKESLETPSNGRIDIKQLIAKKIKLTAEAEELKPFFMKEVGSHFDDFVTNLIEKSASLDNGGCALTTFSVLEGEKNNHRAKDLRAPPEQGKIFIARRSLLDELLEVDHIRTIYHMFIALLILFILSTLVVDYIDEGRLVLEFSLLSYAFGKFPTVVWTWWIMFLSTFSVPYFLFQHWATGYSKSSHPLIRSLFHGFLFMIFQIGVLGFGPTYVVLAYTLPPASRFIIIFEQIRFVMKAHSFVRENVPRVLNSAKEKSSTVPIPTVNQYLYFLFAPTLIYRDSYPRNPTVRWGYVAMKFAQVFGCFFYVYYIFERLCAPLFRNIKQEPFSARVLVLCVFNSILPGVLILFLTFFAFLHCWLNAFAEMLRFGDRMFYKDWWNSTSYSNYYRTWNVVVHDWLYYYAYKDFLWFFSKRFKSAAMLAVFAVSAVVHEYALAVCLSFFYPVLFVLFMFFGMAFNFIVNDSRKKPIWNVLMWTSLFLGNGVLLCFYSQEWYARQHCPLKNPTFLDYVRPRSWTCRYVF

The IC50 is the point on the concentration scale where inhibition reaches its midpoint. Regarding `O=C(Nc1ccc(N2CCC3(CC2)CC(C(=O)O)C3)nc1)c1nnc(Nc2ccc(F)c(F)c2)o1`, the IC50 worked out at 2500 nM.

For the molecule `O=C(O)CC1CCC2(CC1)CCN(c1ccc(NC(=O)c3nnc(Nc4ccc(F)c(F)c4)o3)cn1)CC2`, the IC50 was 45 nM.
